Results published in article PMC2621068 (Neuropeptides, 2008).

Legend:
female Kuming mice = conditions: mouse, in vivo
Kuming mice [1] = assay type: in vivo, mouse; conditions: n = 8
Kuming mice [2] = conditions: mouse, in vivo

SMILES: CC(C(O)c1ccc(O)cc1)N1CCC(Cc2ccccc2)CC1 (centres unmarked) [ifenprodil, reference compound]
- Paw withdrawal latency after administration, 30 min (female Kuming mice): 11.1 ± 3.7 s
- Paw withdrawal latency after administration, 90 min (female Kuming mice): 11.1 ± 4.6 s
- Paw withdrawal latency after administration, 150 min (female Kuming mice): 11.2 ± 3.0 s
- Paw withdrawal latency after administration, 240 min (female Kuming mice): 12.8 ± 3.0 s
- Paw withdrawal latency before administration (female Kuming mice): 10.8 ± 2.4 s
- antinociception in the hot-plate test (in words) (female Kuming mice): had no effect
- first phase response of the formalin test (in words) (Kuming mice [1]): without effect in both phases
- second phase response of the formalin test (in words) (Kuming mice [1]): without effect in both phases
- Increase in paw width (Kuming mice [2]): 1.10 ± 0.05 mm
- Injected paw width, after formalin injection (Kuming mice [2]): 2.70 ± 0.04 mm
- Injected paw width, before formalin injection (Kuming mice [2]): 1.59 ± 0.04 mm
